Results on two molecules are retold here after ChEMBL document CHEMBL4229401, “Synthesis and evaluation of a ring-constrained Hsp90 C-terminal inhibitor that exhibits neuroprotective activity” (Bioorg Med Chem Lett, 2018).

Experiment [1] is filed under the species Rattus norvegicus. Nature of the experiment: Neuroprotective activity against H2O2-induced mitochondrial dysfunction in rat 50B11 cells assessed as improvement in mitochondrial biogenesis by measuring increase in maximal respiratory capacity pretreated for 24 hrs followed by H2O2 challenge and measured after 2 hrs. It counts as functional, cell-based.
For experiment [2], the species on record is Rattus norvegicus. Nature of the experiment: Inhibition of C-terminal Hsp90 in rat 50B11 cells assessed as increase in Hsp70 expression at 0.1 to 1 uM after 24 hrs by Western blot analysis. It counts as cell-based. On the technique in general: Immunoblotting shows a protein as a band on a membrane.

The source made the active and inactive calls. The calls are words filed in the database; no cut-off is given here.

`CO[C@@H]1[C@@H](O)[C@@H](O)[C@H](Oc2ccc(CCNC(C)=O)c3c4cccc(F)c4c(=O)n(C)c23)OC1(C)C`: the Activity entry in experiment [1] is “Dose-dependent effect”. In experiment [2], the inhibition result was “Active”.
Taken in the same sequence, the figures for `CO[C@@H]1[C@@H](O)[C@@H](O)[C@H](Oc2ccc(CCNC(C)=O)c(-c3cccc(F)c3)c2)OC1(C)C` were “Dose-dependent effect” and “Active”.
